Reference: article PMC4279401 (Oncotarget, 2014)
Entries after “also recorded” stand apart in the source; their conditions may differ. Where two headings read alike, the source gives them in different places.

Experiments:
H3K27 methylation = test: Western blot of histone methylation in MDA-MB231; format: cell-based; settings: Homo sapiens, MDA-MB-231, Fig. 4b, read-out: IC50 against H3K27 methylation
Description: (§1) 10^6 cells/well were incubated with increasing concentrations of a compound for 5 days and histones extracted with the EpiQuik™ Total Histone Extraction Kit (Epigentek) according to the manufacturer's protocol. Equal amounts of histones (2μg) were separated on SDS-PAGE and transferred to PVDF membranes. The blots were probed with primary antibodies, followed by anti-rabbit IgG (Thermo Scientific) secondary antibodies. For western blot analysis of MDA-MB231 xenograft tumors, tumors were harvested and frozen in liquid nitrogen. Histones were extracted and analyzed by immunoblotting as described above.

[1] = test system: methylation at H3K4, H3K9, H3K27, H3K36 and H4K20; test: Western blot of methylation at other histone lysines in MDA-MB231; format: cell-based, Human; settings: at concentrations of <1 μM, in words
Description: as §1

BT549 = test: Cell proliferation, MTT assay; format: cell-based; settings: Homo sapiens
MDA-MB231 cells [2] = test: Apoptosis, Annexin V FACS; format: cell-based, Human; settings: 20 nM, day 7
Description: (§2) For apoptosis and cell cycle analysis, 10^5 cells/well were incubated with increasing concentrations of a compound for 7 or 10 days. Apoptosis was determined using the FITC Annexin V Apoptosis Detection Kit I (BD Bioscience) according to the manufacturer's protocol. Cells for cell cycle analysis were fixed in cold 70% ethanol at 4°C and stained with Propidium iodide (Sigma-Aldrich) (20 μg/ml) and RNase A (10 μg/ml) for 30min. Cells were analyzed using a FACS Calibur (BD Biosciences/Applied Biosystems) and data were processed using the program Flowjo (version7.6.5).

MDA-MB231 xenograft = MDA-MB231 xenograft mouse model; format: in vivo, athymic nude mice; settings: 4 mg/kg/day for 28 days
Description: (§3) Female athymic nude mice (4 to 6 weeks old) were obtained from Charles River (Wilmington, MA, USA) and maintained under pathogen-free conditions. The use of athymic nude mice and their treatment were approved by the BCM Institutional Animal Care and Use Committee, and the experiments were conducted in strict compliance with the regulations. 2 ×10^6 MDA-MB-231 cells were injected into the upper right mammary fat pad of the recipient mouse and tumor growth and animal weights were monitored twice a week. The tumor volumes were calculated using the formula length × (width)^2/2. When the tumors reached a size of about 20–30 mm^3, mice were randomly segregated into control and treatment groups. Mice in the treatment group were implanted subcutaneously an osmotic pumps (Alzet model 2004) containing 2.8 mg of 3 in 200 μL of PBS. Animals were sacrificed when the volumes of tumors reaching ~1.5 cm^3. Log-rank analysis was used to determine statistical significance of the survival curves using Prism 5.0 (GraphPad).

Toxicity in treated mice = format: in vivo
Description: as §3

MDA-MB231 cells [3] = test: CD44/CD24 flow cytometry; format: cell-based, Human; settings: MDA-MB231, FACS, in words
Description: (§4) 5 × 10^4 cells/well were incubated with compounds for 14 days. The ALDH activity of cells was determined by using the ALDEFLUOR assay kit (StemCell Technologies) according to the manufacturer's instructions. Combinations of fluorochrome-conjugated monoclonal antibodies against human CD44-FITC and CD24-PE were obtained from BD Biosciences. Primary antibodies or the respective isotype controls (BD Biosciences) were added to the cell suspension, according to the manufacturer's recommendation, and incubated at 4°C for 20 min. Dead cells were eliminated using propidium iodide (Sigma). The labelled cells were analyzed on a FACS Calibur (BD Biosciences/Applied Biosystems).

MDA-MB231 cells [4] = test: Cell cycle analysis, propidium iodide FACS; format: cell-based, Human
Description: as §2

MDA-MB231 [5] = test: Cell proliferation, MTT assay; format: cell-based; settings: Homo sapiens
[6] = test system: MDA-MB231, BT549 and MCF-7 breast cancer cells; test: Cell proliferation, MTT assay, DOT1L+ breast cancer cells; format: cell-based, Human
MDA-MB231 cells [7] = test: ALDEFLUOR assay; format: cell-based, Human; settings: in words
Description: as §4

MDA-MB231 [8] = test: Transwell cell migration assay; format: cell-based, Human; settings: MDA-MB231, Transwell with and without Matrigel, in words
Description: 5 × 10^4 cells/well were incubated with compounds for 14 days. For transwell migration assays, 5× 10^4 cells were plated in the top chamber with the non-coated membrane (24-well insert; pore size, […]; BD Biosciences). For invasion assays, 5× 10^4 cells were plated in the top chamber with Matrigel-coated membrane. The cells on the apical side of each insert were then scraped off after 22 h for both assays. The wells were washed with PBS, fixed with 100% methanol and stained with DAPI. Cells that had migrated to the basal side of the membrane were visualized and counted with a Nikon Eclipse TE2000-U microscope at 10×. Pictures of three random fields were obtained and the number of cells that had migrated quantified using ImageJ analysis software.

H3K79 methylation [9] = test: Western blot of histone methylation in MDA-MB231; format: cell-based, Human; settings: Homo sapiens, MDA-MB-231, read-out: IC50 of H3K79 methylation inhibition
Description: Human cell lines BT549, MDA-MB231, MCF-7, MDA-MB157, HCC70, A549 and NB4 were obtained from the American Type Culture Collection (ATCC) and cultured using ATCC recommended conditions. Primary antibodies against H3K79me2, H3K27me3, H3K4me3, H3K36me2, H4K20me3, H3K9me-pan were purchased from Cell Signaling (Danvers, MA). siRNA experiments were performed by transfecting MDA-MB-231 cells with X-tremeGENE Transfection Reagent (Roche) and 10 nM siRNA (Invitrogen), according to the manufacturer's protocol.
as §1

MDA-MB231 [10] = test: Secondary mammosphere assay; format: cell-based, Human; settings: MDA-MB231, in words
Description: The protocol for mammosphere assay was performed using a published method. The numbers of secondary mammospheres in each well were counted using a Leica MZ12.5 microscope.

SAHH = settings: read-out: Ki against SAHH; cited from earlier work
H3K79 methylation [11] = test: Western blot of xenograft tumor tissues; format: in vivo, athymic nude mice; settings: day 14, Western blot, in words
Description: as §1
as §3, with “Mice in the treatment group were implanted subcutaneously an osmotic pumps (Alzet model 2004) containing 2.8 mg of 3 in 200 μL of PBS. Animals were sacrificed when the volumes of tumors reaching ~1.5 cm^3. Log-rank analysis was used to determine statistical significance of the survival curves using Prism 5.0 (GraphPad).” left out

MCF-7 = test: Cell proliferation, MTT assay; format: cell-based; settings: Homo sapiens

SMILES: Nc1ncnc2c1ncn2[C@@H]1C=C(CO)[C@@H](O)[C@H]1O [Compound 3, neplanocin A]
- IC50 (H3K27 methylation): > 6000 nM
- inhibitory activity against methylation at H3K4, H3K9, H3K27, H3K36 and H4K20 [1]: no or negligible inhibitory activities; also recorded: negligible effects
- EC50 (BT549; BT-549, 72 h, BT549, 3-day treatment, read-out: Anti-proliferative activity EC50): 2600 nM
- EC50 (BT549; BT-549, 360 h, BT549, 15-day, read-out: EC50, 15-day treatment): 29 nM
- apoptosis of MDA-MB231 cells (MDA-MB231 cells [2]): 12.1%
- animal survival (MDA-MB231 xenograft; in words): significantly prolonged animal survivals
- tumor growth (MDA-MB231 xenograft; in words): significantly inhibited
- tumor growth inhibition (MDA-MB231 xenograft; subcutaneous osmotic pump): > 95%
- tumors exhibiting regression during the treatment (MDA-MB231 xenograft; remained 1-3 mm in diameter): Four tumors (out of nine)
- toxicities (Toxicity in treated mice; 4 mg/kg/day for 28 days, in words): no obvious toxicities
- changes in blood cell counts, hemoglobin and body weight (Toxicity in treated mice; 4 mg/kg/day, day 28, in words): did not cause significant changes; also recorded: no significant changes
- CD44+/CD24− cell population (MDA-MB231 cells [3]): reduced; also recorded: decreased
- cell population expressing high levels of CD24 (MDA-MB231 cells [3]): significantly expanded; also recorded: increased cell population expressing high levels of CD24
- sub-G1 phase cell population (MDA-MB231 cells [4]; MDA-MB231, in words): increased sub-G1 population
- sub-G phase cell population after treatment (MDA-MB231 cells [4]; MDA-MB231, control 4.4%): 21.2%
- EC50 (MDA-MB231 [5]; MDA-MB-231, 72 h, MDA-MB231, 3-day treatment, read-out: Anti-proliferative activity EC50): 930 nM
- EC50 (MDA-MB231 [5]; MDA-MB-231, 360 h, MDA-MB231, 15-day, read-out: EC50, 15-day treatment): 9 nM
- EC50 ([6]; Homo sapiens, 72 h, three DOT1L+ breast cancer cells, 3-day, read-out: EC50, 3-day treatment): 900 to 2600 nM
- times more active in 15-day than in the corresponding 3-day data ([6]; MDA-MB231, BT549, MCF-7): 18 - 100 ×
- ALDH+ cell population (MDA-MB231 cells [7]): decreased; also recorded: reduced
- cell migration and invasion (MDA-MB231 [8]): more pronounced activity; also recorded: reduced cell migration and invasiveness
- IC50 (H3K79 methylation [9]): ~50 nM
- secondary mammosphere formation (MDA-MB231 [10]): more pronounced activity; also recorded: inhibited secondary mammosphere formation
- Ki (SAHH): 8.4 nM
- H3K79 methylation in tumor tissues (H3K79 methylation [11]): only significantly reduced H3K79 methylation levels; also recorded: only H3K79 methylation was significantly inhibited
- EC50 (MCF-7; MCF7, 72 h, MCF-7, 3-day treatment, read-out: Anti-proliferative activity EC50): 910 nM
- EC50 (MCF-7; MCF7, 360 h, MCF-7, 15-day, read-out: EC50, 15-day treatment): 51 nM
